Values quoted from earlier work as cited in patent US20110271957A1, “Delivery of estrogen and bioequivalents thereof via the pulmonary tract” (BATTELLE MEMORIAL INSTITUTE, priority 2010, published 2011).

Conditions: intranasal delivery route

In the case of `C[C@]12CC[C@@H]3c4ccc(O)cc4CC[C@H]3[C@@H]1CC[C@@H]2O` [estradiol, 17β-estradiol], the “bioavailability of administered estradiol” value is given as “about 25%”.
